Test results: BigSolDB 2.1

CNC[C@H](O)[C@@H](O)[C@H](O)[C@H](O)CO.Cc1c(Nc2ncccc2C(=O)O)cccc1C(F)(F)F
solubility (mole fraction)
Conditions	283.15 K	288.15 K	293.15 K	298.15 K	303.15 K	308.15 K	313.15 K	318.15 K	323.15 K	328.15 K
in acetone	0.00077	0.000937	0.00119	0.00158	0.00215	0.00275	0.00354	0.0048	0.00698	0.0104
in acetonitrile	3.16e-05	3.86e-05	4.58e-05	6.88e-05	0.000109	0.000173	0.00025	0.00035	0.000517	0.000733
in ethanol	0.00285	0.00353	0.00448	0.00576	0.00775	0.0113	0.0162	0.0228	0.0345	0.0502
in isopropanol	0.000626	0.000759	0.000924	0.00118	0.00162	0.00198	0.00299	0.00433	0.00642	0.00934
in methanol	0.0202	0.024	0.0293	0.0349	0.0448	0.0547	0.0652	0.08	0.0934	0.111
in water	0.00738	0.00886	0.0111	0.0151	0.021	0.0286	0.0382	0.0504	0.0633	0.0807
